# Results published in PubChem BioAssay (NCI).
# Several values for one entry are separate records, joined by “and”; a condition that tells them apart may be missing. Equal values may be shown once.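 Each compound was tested at five concentrations against cells in 96-well plates for 48 hours. Abbreviation: GI50, concentration required for 50% inhibition of growth. TGI: concentration producing complete growth inhibition.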
# Test system: MDA-MB-468 breast
# Test: NCI-60 cell line screen, 48 h
SMILES,GI50,TGI
O=[N+]([O-])c1cc(F)c2cccnc2c1O,14700 nM,47200 nM
Oc1c(CN2CCOCC2)cc(COCc2ccccc2)c2cccnc12,2390 nM,7190 nM
O=C(O)C(=O)CBr,> 48300 nM and 16900 nM,> 72400 nM and 33300 nM
COc1ccc2[nH]c(O)c(/C=c3/cc4c(c(-c5ccc(F)cc5)n3)=Nc3ccccc3-4)c2c1,2220 nM,5470 nM
C#Cc1cc2c(N)c(C(=O)c3cc(OC)c(OC)c(OC)c3)[nH]c2cc1OC,497 nM,43200 nM
Oc1ccc(Cl)cc1-c1cc(-c2ccc(F)cc2)n[nH]1,1350 nM,5350 nM
CC(=O)N1CCN(CCOc2ccc(C3CCN(C4=Nn5c(nnc5C(F)(F)F)CC4)CC3)cc2)CC1,3720 nM,61100 nM
CCCCCc1c(C)[nH]c(/C=C2\N=C(c3ccc[nH]3)C=C2OCc2ccccc2)c1C,96.9 nM and 23.5 nM,764 nM and 268 nM
CC(C)(C)Nc1nc2c(OCCc3ccccc3)cccn2c1-c1cccc(F)c1,3510 nM,22900 nM
c1ccc2nc(OCCN3CC3)ccc2c1,2770 nM,7870 nM
CN(C)CCNc1nc2ccccc2c2c(=O)c3ccccc3sc12,1450 nM,3310 nM
CCCCCCNC(=O)Oc1ccc(/C(=C(\C)c2ccccc2)c2ccc(OCCN(CC)CC)cc2)cc1,2920 nM,9720 nM
Nc1c(C(=O)Nc2cccc(Br)c2)sc2nc3c(cc12)C(O)CCC3 (stereo not given),237 nM,31700 nM
CCOC(=O)c1ccccc1-c1c2ccc(=[N+](C)C)cc-2oc2cc(N(C)C)ccc12,46.9 nM,410 nM
O=[As]c1ccc(C(=O)c2ccc(Oc3ccccc3)cc2)cc1 (stereo not given),26.6 nM,101 nM
CC[C@H](NC(=O)[C@H](CS(=O)(=O)CC1CC1)N[C@@H](c1ccc(F)cc1)C(F)(F)F)C(=O)C(=O)NC1CC1,49900 nM,> 100000 nM
CO[C@H](C(=O)O)[C@@H]1Cc2cc3cc(OC4CC(OC5CC(O)C(O)C(C)O5)C(O)C(C)O4)c(C)c(O)c3c(O)c2C(=O)[C@H]1OC1CC(OC2CC(OC3CC(C)(O)C(O)C(C)O3)C(O)C(C)O2)C(O)C(C)O1 (stereo not given in full),159 nM,885 nM
C=CCCC(=O)N1C=CC(=O)[C@H](O)[C@@H]1/C=C/c1ccccc1,5120 nM,22300 nM
CCOc1cc(C(C)(C)C)ccc1C1=N[C@@](C)(c2ccc(Cl)cc2)[C@@](C)(c2ccc(Cl)cc2)N1C(=O)N1CCN(CCS(C)(=O)=O)CC1,2100 nM,6340 nM

SMILES,GI50,TGI
Cn1ncc(-c2ccc3c(=O)[nH]nc(CN)c3c2)c1-c1c(F)cc2ccccc2c1C#N,7020 nM,21100 nM
COc1cccc(C2=C(c3cn(C)c4cccc(OC)c34)C(=O)NC2=O)c1,6880 nM,> 25000 nM
CCCn1c(N)c(C(=O)CNc2ccc(I)cc2)c(=O)[nH]c1=O,,> 100000 nM
COc1cc(-c2nn(-c3ccc(NC(=O)c4cc(Cl)cc(Cl)c4)cc3)cc2-c2ccncc2)ccc1Cl,> 100000 nM,> 100000 nM
CN1CCN(CCOc2ccc(-c3cnc4c(-c5ccc(F)cc5)cnn4c3)cc2)CC1,1540 nM,3190 nM
COc1cc([C@@H]2c3cc4c(cc3C(OC3O[C@@H]5COC(C)O[C@H]5[C@H](O)[C@H]3O)C3COC(=O)[C@@H]32)OCO4)cc(OC)c1O (stereo not given in full),1100 nM,4500 nM
CC1(C)[C@@H](OC(N)=O)C=C[C@]2(C=O)[C@H]3CC[C@]4(C)[C@@H](c5ccc(=O)oc5)[C@@H](Cl)C[C@]4(O)C3=CC[C@@H]12,6.13 nM,16.1 nM
O=C(CCl)Nc1cc(O)c2c(c1)C(=O)c1cccc(O)c1C2=O,1040 nM,2860 nM
CC(C)(C)C(=O)OCc1nc2cc3c(cc2c(=O)[nH]1)CCC3=O,> 100000 nM,> 100000 nM
CC(=O)C1(O)Cc2c(O)c3c(c(O)c2C(OC2CC(N)C(O)C(C)O2)C1)C(=O)c1ccccc1C3=O (stereo not given),11.9 nM,39.8 nM
CCCCOc1ccc(/C=N/Nc2cc(C)nc3ccc(Cl)cc23)cc1,1530 nM,2970 nM
COc1cccc(-c2cc(=O)c3cc(Cl)cnc3[nH]2)c1,886 nM,> 100000 nM
O=C(Nc1ccc(I)cc1F)c1cc(I)ccc1O,808 nM,2460 nM
COc1ccc(-c2c(N)n[nH]c2-c2cc(OC)c(OC)c(OC)c2)cc1,94.6 nM,2870 nM
ClCC#CCSc1ncnc2c1ncn2CC#CCCl,1430 nM,3200 nM
CN(C)CCCOc1c2ccc(Cl)cc2nc2c1oc1ccc(Cl)cc12,2120 nM,7030 nM
Cc1c(C(=O)O[C@H]2[C@@H]3[C@H](C)CC[C@H]3[C@]3(C)O[C@@]2(C2CCCCC2)C[C@H]3OC(=O)CO)ccc2ccccc12,8120 nM,16100 nM
OC(COc1cccc2ccccc12)CN1CCN(c2ccccc2Cl)CC1 (stereo not given),15300 nM,30100 nM
COC(=O)[C@]12CC[C@@H](C)[C@H](C)[C@@H]1C1=CC[C@@H]3[C@@]4(C)CC(=O)[C@H](OC(=O)c5ccco5)[C@@]5(C)COC(=C45)C[C@@]3(C)[C@]1(C)CC2,420 nM,> 100000 nM
